# Assay results from patent US20140234502A1, “Treatment of Produce” (Rohm and Haas Company, priority 2009, published 2014).
# What was measured:
# Format in all cases: in vivo, pear
# [1] = test system: Conference Pears; assay: Examination of Conference pears for scald; settings: Example 9, CA 6 months; for percent with scald: Italy
# Excerpt: (§1) Pears (Conference, William's/Bartlett, or Packam's) were harvested at maturity for long storage. Number of fruits and replicates were selected according to the size of the chamber in which to apply 1-MCP and according to the statistical design. Airtight containers in the range of 1 cubic meter were used for the application of both 1-MCP and ethylene. 1-MCP was released from SmartFresh™ powder that contained 0.14% 1-MCP by weight (obtained from AgroFresh, Inc.). The amount of that SmartFresh™ powder was chosen to yield the target atmospheric concentration of 1-MCP in the chosen container. For example, the 1-MCP released from 1000 mg of that SmartFresh™ powder in 1 cubic meter yielded 1-MCP concentration in the atmosphere of 625 ppb.
# (§2) The chosen amount of SmartFresh™ powder was dissolved in water into a tight flask and shaken until all the powder was dissolved. The flask was then put it into the airtight container and opened, to release the 1-MCP. At the same time of the opening of the 1-MCP flask, ethylene was injected with a syringe into the airtight container. Ethylene was taken from a compressed tank at known concentration: either taken directly or released into a flask. In the latter case the concentration was measured by gas-chromatograph to determine the quantity of volume to inject into the airtight container to get the target concentration.
# (§3) The exposure to atmosphere containing either 1-MCP alone or 1-MCP and ethylene was done on cold pears (already cooled down to non-ambient storage temperature) within a maximum of 7 days from harvest and lasted 24 hours. At the end of the application, the airtight container was vented for 15 minutes and the fruits were put into RA or CA storage. RA storage was at temperature of −1° C. to 1° C. and at relative humidity of 80% to 98%. CA storage had the same temperature and humidity of RA storage, had oxygen level of 1% to 3%, by volume based on the volume of the atmosphere and had carbon dioxide level of 0.5% to 2%, by volume based on the volume of the atmosphere.
# Pears from Italy (the same pears whose firmness is reported herein above in Example 5) were examined for scald after exposure to ambient conditions for the number of days shown below.
# [2] = test system: Conference Pears; assay: Firmness of Conference pears by penetrometer after treatment, non-ambient storage and shelf life; design: key to SW France F (firmness) / Italy F (firmness) / Average F (firmness): penetrometer force in kgf (8 mm probe); settings: for ES A F (firmness): farm ES A; for ES B F (firmness): farm ES B; for IT F (firmness): farm IT; for firmness: Example 9, CA 6 months; for Italy F (firmness) / firmness: Italy; for Orchard #1 F (firmness) / Orchard #2 F (firmness) / Orchard #3 F (firmness): Example 11, Spain, RA 3 months
# Excerpt: as §1, §2, §3
# In addition, samples of pears (from the same orchards from which pears treated with 1-MCP alone or 1-MCP and ethylene were harvested) were put into an airtight container for 24 hours at the temperature as the treated pears in order to reproduce the same environmental conditions. Then they were stored in the same rooms or in separated rooms in the same conditions of RA and CA as the treated pears. These pears received no exposure to 1-MCP, exogenous ethylene, or any combination thereof, and they are labeled “control” below.
# Length of non-ambient storage at present commercial temperature and storage regime was generally of 2-4 months in RA and 6 months in CA, unless otherwise specified, according to normal commercial practice.
# All pears received the same progression of non-ambient storage followed by exposure to ambient conditions (“shelf life”).
# Pears denoted with a single number (e.g., “300”) received 1-MCP treatment with that concentration, in ppb, of 1-MCP in the atmosphere (e.g., 300 ppb) and were not exposed to exogenous ethylene. Pears denoted with two numbers (e.g. “300+600”) were treated with both that concentration in ppb of 1-MCP and that concentration in ppb of ethylene (e.g., 300 ppb of 1-MCP and 600 ppb of ethylene). The firmness of pears was tested using commercial penetrometers with test probe of 8 mm diameter. Reported quantity is “firmness” (“F”), the penetrometer force in kgf.
# [3] = test system: Conference Pears; assay: Color rating of Conference pears; settings: ambient 5-8 days; for Italy color / SW France color: scale of 0 (green) to 5 (yellow)
# Excerpt: as §1, §2, §3
# Pears were tested for firmness, as described above, and were rated for color on a scale of 0 (green) to 5 (yellow).
# [4] = test system: William's Pears; assay: Firmness of William's pears by penetrometer after treatment, non-ambient storage and shelf life; settings: South Africa, RA for 8 weeks, ambient for 5 days
# Excerpt: as §1, §2
# The exposure to atmosphere containing either 1-MCP alone or 1-MCP and ethylene was done on cold pears (already cooled down to non-ambient storage temperature) within a maximum of 7 days from harvest and lasted 24 hours. At the end of the application, the airtight container was vented for 15 minutes and the fruits were put into RA or CA storage. RA storage was at temperature of −1° C. to 1° C. and at relative humidity of 80% to 98%. […]
# (§4) Pears denoted with a single number (e.g., “300”) received 1-MCP treatment with that concentration, in ppb, of 1-MCP in the atmosphere (e.g., 300 ppb) and were not exposed to exogenous ethylene. […] Reported quantity is “firmness” (“F”), the penetrometer force in kgf. […]
# [5] = test system: Packam's Pears; assay: Firmness of Packam's pears by penetrometer after treatment, non-ambient storage and shelf life; settings: South Africa, ambient 5 days
# Excerpt: as §1, §2, §3
# In addition, samples of pears (from the same orchards from which pears treated with 1-MCP alone or 1-MCP and ethylene were harvested) were put into an airtight container for 24 hours at the temperature as the treated pears in order to reproduce the same environmental conditions. Then they were stored in the same rooms or in separated rooms in the same conditions of RA and CA as the treated pears. […]
# as §4
# [6] = test system: Conference Pears; assay: Inspection of Conference pears for rot, bruising and internal browning
# Excerpt: as §1, §2, §3
# After RA storage, pears were exposed to ambient for the number of days shown below and then inspected for rot, bruising, and internal browning (“I.B.”). Results shown are the percentage of pears having the disorder.
# Pears from SW France were examined as in Example 7, and the percent disordered fruit was as follows: […]
# [7] = test system: Pears (Conference, William's/Bartlett, or Packam's); assay: Firmness of pears, summary over all Examples; settings: each of the Examples; samples exposed to 1-MCP and not to ethylene
# Excerpt: as §1
# The chosen amount of SmartFresh™ powder was dissolved in water into a tight flask and shaken until all the powder was dissolved. The flask was then put it into the airtight container and opened, to release the 1-MCP. […] In the latter case the concentration was measured by gas-chromatograph to determine the quantity of volume to inject into the airtight container to get the target concentration. […]
# Pears denoted with a single number (e.g., “300”) received 1-MCP treatment with that concentration, in ppb, of 1-MCP in the atmosphere (e.g., 300 ppb) and were not exposed to exogenous ethylene. […] Reported quantity is “firmness” (“F”), the penetrometer force in kgf.
# [8] = Example 3, RA 3 months, ambient 5 to 8 days
# [9] = Example 4, CA 6 months, ambient 5 to 8 days
# [10] = Example 5, RA 3 months, ambient 5-8 days
# [11] = Example 6, CA 6 months, ambient 5-8 days
# [12] = Example 7, RA 4 months, SW France, 13 ambient days
# [13] = Example 8, CA 6 months, ambient 13 days, SW France
smiles,measurement,setting,value
"CC1=CC1 [300(C), 1-MCP]",percent with scald,[1]; 0 ambient days,0%
same,percent with scald,[1]; 7 ambient days,1%
same,"AV F (firmness), average of the results from the seven farms",[2]; [8],4.6 kgf
same,ES A F (firmness),[2]; [8],2.5 kgf
same,ES B F (firmness),[2]; [8],3.4 kgf
same,FR A F (firmness),"[2]; Example 3, RA 3 months, ambient 5 to 8 days, farm FR A",5.3 kgf
same,FR B F (firmness),"[2]; Example 3, RA 3 months, ambient 5 to 8 days, farm FR B",5.1 kgf
same,IT F (firmness),[2]; [8],4.8 kgf
same,NL A F (firmness),"[2]; Example 3, RA 3 months, ambient 5 to 8 days, farm NL A",5.3 kgf
same,NL B F (firmness),"[2]; Example 3, RA 3 months, ambient 5 to 8 days, farm NL B",5.6 kgf
same,"Av F (firmness), average of the results from the six farms",[2]; [9],4.1 kgf
same,ES A F (firmness),[2]; [9],4.2 kgf
same,ES B F (firmness),[2]; [9],3.3 kgf
same,FR F (firmness),"[2]; Example 4, CA 6 months, ambient 5 to 8 days, farm FR",4.7 kgf
same,IT F (firmness),[2]; [9],4.7 kgf
same,NL A F (firmness),"[2]; Example 4, CA 6 months, ambient 5 to 8 days, farm NL A",4.4 kgf
same,NL B F (firmness),"[2]; Example 4, CA 6 months, ambient 5 to 8 days, farm NL B",3.4 kgf
same,Italy F (firmness),[2]; [10],4.8
same,SW France F (firmness),[2]; [10],5.1
same,Italy F (firmness),[2]; [11],4.7
same,SW France F (firmness),[2]; [11],4.7
same,Average F (firmness),"[2]; Example 6, CA 6 months, ambient 5-8 days, average of SW France and Italy",4.7
same,firmness,[2]; 0 ambient days,6.5 kgf
same,firmness,[2]; 7 ambient days,4.7 kgf
same,"Average F (firmness), average of the two orchards","[2]; Example 10, RA 3 months, ambient 5 days",4.48 kgf
same,NL A F (firmness),"[2]; Example 10, RA 3 months, ambient 5 days, NL A",5.59 kgf
same,NL B F (firmness),"[2]; Example 10, RA 3 months, ambient 5 days, NL B",3.37 kgf
same,Orchard #1 F (firmness),[2]; 0 days ambient,5.72 kgf
same,Orchard #2 F (firmness),[2]; 0 days ambient,5.92 kgf
same,Orchard #3 F (firmness),[2]; 0 days ambient,5.97 kgf
same,Orchard #1 F (firmness),[2]; 7 days ambient,5.84 kgf
same,Orchard #2 F (firmness),[2]; 7 days ambient,5.53 kgf
same,Orchard #3 F (firmness),[2]; 7 days ambient,5.44 kgf
same,Orchard #1 F (firmness),[2]; 12 days ambient,5.55 kgf
same,Orchard #2 F (firmness),[2]; 12 days ambient,5.68 kgf
same,Orchard #3 F (firmness),[2]; 12 days ambient,5.62 kgf
same,Italy color,"[3]; Example 5, RA 3 months",1.9
same,SW France color,"[3]; Example 5, RA 3 months",2.95
same,Italy color,"[3]; Example 6, CA 6 months",2.4
same,SW France color,"[3]; Example 6, CA 6 months",2.7
same,Average color,"[3]; Example 6, CA 6 months, average of SW France and Italy, scale 0 (green) to 5 (yellow)",2.6
same,farm 1 F (firmness),[4]; farm 1,6.7 kgf
same,farm 2 F (firmness),[4]; farm 2,5.6 kgf
same,farm 3 F (firmness),[4]; farm 3,7.2 kgf
same,8 weeks F (firmness),[5]; RA for 8 weeks,6.8 kgf
same,12 weeks F (firmness),[5]; RA for 12 weeks,5.8 kgf
same,percentage of pears having internal browning (I.B.),"[6]; Example 7, RA 4 months, Loire, France, 11 ambient days",0 percentage
same,percentage of pears having internal browning (I.B.),"[6]; Example 7, RA 4 months, Loire, France, 13 ambient days",0 percentage
same,percentage of pears having internal browning (I.B.),"[6]; Example 7, RA 4 months, Loire, France, 15 ambient days",0 percentage
same,percentage of pears having bruising,[6]; [12],0 percentage
same,percentage of pears having internal browning (I.B.),[6]; [12],0 percentage
same,percentage of pears having rot,[6]; [12],0 percentage
same,percent disordered fruit: I.B.,[6]; [13],34%
same,percent disordered fruit: rot,[6]; [13],12%
"CC1=CC1 [Sample 1-MCP, 1-MCP]",pears with scald (in words),[1],fewer pears with scald than the control group
same,firmness (in words),[7],undesirably high
same,color rating (in words),"[3]; Example 6, CA 6 months, on average",undesirably too green color rating
same,percentage of disorders (in words),"[6]; Example 7, RA 4 months",lower percentage of disorders than the control pears
same,diseased fruits (in words),"[6]; Example 8, CA 6 months, ambient 13 days",fewer diseased fruits that the control sample
same,resistance to deterioration (in words),"[6]; Examples 7, 8, and 9",showed resistance to deterioration
